For 40 compounds, IC50 results are on record in patent publication US12319655B2, “RAF kinase inhibitors and methods of use thereof” (Deciphera Pharmaceuticals, LLC, priority 2021, dated 2025).

Test [1] has as its target B-Raf (V600E) (SEQ. ID NO: 4) kinase (Homo sapiens (Human), UniProt P15056, V600E). The test is described as follows: Biochemical Assay for B-Raf (V600E) (1). The conditions noted are these: Table J, BRAF V600E, biochemical assay (1); read-out: BRAF VE (1). Put shortly:
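Coupled pyruvate kinase/lactate dehydrogenase assay: 0.03 nM B-Raf V600E, 30.1 nM MEK, 1 mM ATP, pH 7.5 Tris/MgCl2 buffer, 1% DMSO. NADH oxidation followed at 340 nm for 6 h at 30 °C; rate from 3–4 h converted to percent inhibition, IC50 by four-parameter fit.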

A further test has as its system A375 cells. The test is described as follows: A375 Cell Proliferation Assay (1). The conditions noted are these: Homo sapiens, A-375. Type of test: cell-based. The essentials:
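Resazurin fluorescence (excitation 540 nm, emission 600 nm, after a further 5-6 h) gave IC50s from triplicate compound dilution series.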

The subject of test [2] is H2405 cells. The test is described as follows: H2405 Cell Proliferation Assay (1). Type of test: cell-based. The conditions noted are these: Homo sapiens, NCI-H2405. The essentials: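 Viability was read by resazurin reduction (ex 540 nm, em 600 nm; 5-6 h with 40 μL of 440 μM stock) after 67-72 h compound exposure at 37 °C.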
Test [3] relates to H2405 cells. The test is described as follows: H2405 Cell Proliferation Assay (2). Type of test: cell-based. The following applies: Homo sapiens, NCI-H2405. Here is the method:
H2405 Cell Proliferation Assay (2)
H2405 cells (catalog #CRL-5994) are obtained from the American Type Culture Collect (ATTC, Manassas, VA). Briefly, cells were grown in RPMI 1640 supplemented with 5% characterized fetal bovine serum (Invitrogen, Carlsbad, CA) and 1% Penicillin/Streptomycin/L-Glutamine at 37° C., 5% CO2, and 95% humidity. Cells are expanded until reaching 70-95% confluency at which point they are sub-cultured or harvested for assay use. A serial dilution of test compound is dispensed into a 384-well black clear bottom plate in triplicate. Seven hundred fifty cells are added per well in 50 μL complete growth medium in the 384-well plate. Plates are incubated for 67-72 h at 37° C., 5% CO2, and 95% humidity. At the end of the incubation, 10 μL of a 440 μM solution of resazurin (Sigma, St. Louis, MO) in PBS is added to each well of the plate and plates are incubated for an additional 5-6 h at 37° C., 5% CO2, and 95% humidity. Plates are read on a Synergy2 or equivalent reader (Biotek, Winooski VT) using an excitation of 540 nm and an emission of 600 nm. Data is analyzed using Prism software (GraphPad, San Diego, CA) to calculate IC50 values

Sequence of B-Raf (V600E) (SEQ. ID NO: 4) kinase (P15056 416-766 V600E): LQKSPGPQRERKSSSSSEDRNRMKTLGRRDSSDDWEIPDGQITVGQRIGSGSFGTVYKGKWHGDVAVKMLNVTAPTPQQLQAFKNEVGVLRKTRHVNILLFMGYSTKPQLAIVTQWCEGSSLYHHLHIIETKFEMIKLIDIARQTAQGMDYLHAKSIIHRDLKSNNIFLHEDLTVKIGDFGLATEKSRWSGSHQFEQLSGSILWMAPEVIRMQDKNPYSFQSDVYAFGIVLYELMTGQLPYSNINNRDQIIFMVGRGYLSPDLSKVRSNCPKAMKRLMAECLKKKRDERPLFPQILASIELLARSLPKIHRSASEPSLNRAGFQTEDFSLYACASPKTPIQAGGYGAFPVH

Take `COC(=O)Nc1cc(-c2cccc(-c3cc(NC(=O)c4ccnc(C(C)(C)F)c4)cnc3C)c2)ncn1` [Example 404]: the IC50 is ≤ 0.1 µM in test [1], 0.1 to 0.5 µM in the test on A375 cells and 1 to 10 µM in the test on H2405 cells [2].
For the compound `COC(=O)Nc1cc(-c2cncc(-c3cc(NC(=O)c4ccnc(C5(C#N)CC5)c4)ccc3C)c2)ncn1` [Example 405], the IC50 (in test [1]; in the test with A375 cells; with H2405 cells [2]) was ≤ 0.1 µM each time.
In the case of `Cc1ncc(NC(=O)c2ccnc(C(C)(C)F)c2)cc1-c1cncc(-c2cc(NC(=O)C3CC3)ncn2)c1` [Example 406], the IC50 (in test [1]; in the test with A375 cells; with H2405 cells [2]) was ≤ 0.1 µM each time.
In the case of `Cc1ncc(NC(=O)c2ccnc(C(C)(C)C#N)c2)cc1-c1cccc(-c2cnc3ccccn23)c1` [Example 407], the IC50 in test [1] is 0.1 to 0.5 µM; in the test with A375 cells, 1 to 10 µM; in the test on H2405 cells [2] it was 0.5 to 1 µM.
The matching figures for `CNC(=O)c1cc(-c2cncc(-c3cc(NC(=O)c4ccnc(C(C)(C)F)c4)c(F)cc3C)c2)ccn1` [Example 408]: ≤ 0.1 µM, 0.1 to 0.5 µM and 0.1 to 0.5 µM.
In the same order, the values of `COC(=O)Nc1cc(-c2cnnc(-c3cc(NC(=O)c4cn(C(C)C)nn4)ccc3C)c2)ccn1` [Example 409] are 0.5 to 1 µM, 1 to 10 µM and 1 to 10 µM.
The matching figures for `Cc1ncc(NC(=O)c2ccnc(C(C)(C)C#N)c2)cc1-c1cncc(-c2cc(NC(=O)C3CC3)ncn2)c1` [Example 410]: ≤ 0.1 µM, ≤ 0.1 µM and 0.1 to 0.5 µM.
For the compound `Cc1ccc(NC(=O)c2ccnc(C(C)(C)F)c2)cc1-c1cncc(-c2cc(N)ncn2)c1` [Example 411], the values for the IC50 (in test [1]; in the test on A375 cells; in the test with H2405 cells [2]) were ≤ 0.1 µM, 0.5 to 1 µM and 0.1 to 0.5 µM, respectively.
For the compound `Cc1ccc(NC(=O)c2cn(C(C)C)nn2)cc1-c1cncc(-c2cc(NC(=O)C3CC3)ncn2)c1` [Example 412], the IC50 (in test [1]; in the test on A375 cells; in the test on H2405 cells [2]) was ≤ 0.1 µM throughout.
On to `CNC(=O)c1cc(-c2cncc(-c3cc(NC(=O)c4ccnc(C(C)(C)F)c4)ccc3C)c2)ccn1` [Example 413], for which the IC50 (in test [1]; in the test on A375 cells; in the test on H2405 cells [2]) was ≤ 0.1 µM throughout.
Turning to `COC(=O)Nc1cc(-c2cncc(-c3cc(NC(=O)c4ccnc(C(C)(C)C#N)c4)ccc3C)c2)ncn1` [Example 414], the IC50 (in test [1]; with A375 cells; in the test on H2405 cells [2]) was ≤ 0.1 µM throughout.
With `COC(=O)Nc1cc(-c2cccc(-c3cc(NC(=O)Cn4cc(C(C)C)nn4)cnc3C)c2)ccn1` [Example 415], the IC50 (in test [1]; in the test with A375 cells) was 1 to 10 µM in each case.
As to `COC(=O)Nc1cc(-c2cc(-c3cc(NC(=O)c4ccnc(C(C)(C)F)c4)ccc3C)nc(C)n2)ccn1` [Example 416], the IC50 was ≤ 0.1 µM in test [1], 0.1 to 0.5 µM with A375 cells and 0.1 to 0.5 µM with H2405 cells [2].
As to `Cc1ccc(NC(=O)c2ccnc(C(C)(C)F)c2)cc1-c1cncc(-c2ccnc(NC(=O)C3CC3)c2)c1` [Example 417], the IC50 (in test [1]; in the test on A375 cells; with H2405 cells [2]) was ≤ 0.1 µM each time.
`Cc1cc(F)c(NC(=O)c2ccnc(C(C)(C)C#N)c2)cc1-c1cncc(-c2ccnc(NC(=O)C3CC3)c2)c1` [Example 418]: the IC50 (in test [1]; with A375 cells; in the test on H2405 cells [2]) was ≤ 0.1 µM in each case.
Consider `Cc1ccc(NC(=O)c2ccnc(C(C)(F)F)c2)cc1-c1cncc(-c2cc(NC(=O)C3CC3)ncn2)c1` [Example 419], for which the IC50 (in test [1]; with A375 cells; in the test on H2405 cells [2]) was ≤ 0.1 µM each time.
For the compound `Cc1ccc(NC(=O)c2ccnc(C(C)(C)C#N)c2)cc1-c1cncc(-c2cc(NC(=O)C(C)C)ncn2)c1` [Example 420], the IC50 (in test [1]; with A375 cells; in the test with H2405 cells [2]) was ≤ 0.1 µM throughout.
`Cc1ccc(NC(=O)c2cc(C3CC3)on2)cc1-c1cncc(-c2cc(NC(=O)C3CC3)ncn2)c1` [Example 421]: the IC50 (in test [1]; in the test on A375 cells; in the test with H2405 cells [2]) was ≤ 0.1 µM throughout.
Consider `Cc1ccc(NC(=O)c2ccnc(C(C)(C)C#N)c2)cc1-c1cncc(-c2cc(N)ncn2)c1` [Example 422], for which the results for the IC50 (in test [1]; with A375 cells; in the test on H2405 cells [2]) were ≤ 0.1 µM, 1 to 10 µM and 0.1 to 0.5 µM, respectively.
In the case of `Cc1cc(F)c(NC(=O)c2ccnc(C(C)(C)F)c2)cc1-c1cncc(-c2cc(NC(=O)C3CC3)ncn2)c1` [Example 423], the IC50 (in test [1]; in the test with A375 cells) was ≤ 0.1 µM in each case.
In the case of `Cc1cc(F)c(NC(=O)c2ccnc(C(C)(C)C#N)c2)cc1-c1cncc(-c2cc(NC(=O)C3CC3)ncn2)c1` [Example 424], the IC50 (in test [1]; with A375 cells) was ≤ 0.1 µM each time.
`COC(=O)Nc1cc(-c2cncc(-c3cc(NC(=O)c4ccnc(C(C)(C)F)c4)ccc3C)c2)ncn1` [Example 425]: the IC50 (in test [1]; in the test on A375 cells; with H2405 cells [2]) was ≤ 0.1 µM in each case.
As to `CNC(=O)c1cc(-c2nccc(-c3cc(NC(=O)c4ccnc(C(C)(C)F)c4)c(F)cc3C)n2)ccn1` [Example 427], the IC50 was ≤ 0.1 µM in test [1], 0.1 to 0.5 µM with A375 cells and 0.1 to 0.5 µM in the test with H2405 cells [2].
For `CNC(=O)c1cc(-c2cc(-c3cc(NC(=O)c4ccnc(C(C)(C)F)c4)ccc3C)nc(C)n2)ccn1` [Example 428], the IC50 in test [1] was ≤ 0.1 µM; in the test with A375 cells it was 0.1 to 0.5 µM; in the test on H2405 cells [2], 0.1 to 0.5 µM.
As for `Cc1ccc(NC(=O)c2ccnc(C(F)F)c2)cc1-c1cncc(-c2cc(NC(=O)C3CC3)ncn2)c1` [Example 429], the IC50 (in test [1]; with A375 cells; in the test on H2405 cells [2]) was ≤ 0.1 µM each time.
Consider `Cc1ccc(NC(=O)c2cnn(C3CC3)c2)cc1-c1cncc(-c2cc(NC(=O)C3CC3)ncn2)c1` [Example 430], for which the results for the IC50 (in test [1]; in the test with A375 cells; in the test on H2405 cells [2]) were ≤ 0.1 µM, 0.1 to 0.5 µM and 0.1 to 0.5 µM, respectively.
For `Cc1ccc(NC(=O)c2cc(C(C)(C)C)on2)cc1-c1cncc(-c2cc(NC(=O)C3CC3)ncn2)c1` [Example 431], the IC50 (in test [1]; in the test on A375 cells; in the test with H2405 cells [2]) was ≤ 0.1 µM in each case.
`Cc1ccc(NC(=O)c2ccnc(C(C)(C)F)c2)cc1-c1cncc(-c2ccnc3c2CC(=O)N3)c1` [Example 432]: the IC50 in test [1] was ≤ 0.1 µM; in the test with A375 cells it was 0.5 to 1 µM.
The matching figures for `Cc1ncc(NC(=O)c2ccnc(C(C)(C)F)c2)cc1-c1cncc(-c2ccnc(NC(=O)C3CC3)c2)c1` [Example 433]: ≤ 0.1 µM and ≤ 0.1 µM.
Take `Cc1ccc(NC(=O)c2ccnc(C(C)C)c2)cc1-c1cncc(-c2cc(NC(=O)C3CC3)ncn2)c1` [Example 434]: the IC50 (in test [1]; with A375 cells) was ≤ 0.1 µM throughout.
`COC(=O)Nc1cc(-c2cncc(-c3cc(NC(=O)c4ccnc(C(C)(C)F)c4)ccc3C)c2)ccn1` [Example 435]: the IC50 (in test [1]; in the test on A375 cells; in the test with H2405 cells [2]) was ≤ 0.1 µM each time.
Turning to `Cc1ccc(NC(=O)c2cc(C3CC3)n(C)n2)cc1-c1nccc(-c2ccnc(NC(=O)C3CC3)c2)n1` [Example 436], the figures for the IC50 (in test [1]; with A375 cells; in the test with H2405 cells [2]) were ≤ 0.1 µM, 0.1 to 0.5 µM and ≤ 0.1 µM, respectively.
Consider `CNC(=O)c1cc(-c2cc(-c3cc(NC(=O)c4ccnc(C(C)(C)C#N)c4)ccc3OC)ccn2)ccn1` [Example 437], for which the results for the IC50 (in test [1]; with A375 cells; in the test on H2405 cells [2]) were ≤ 0.1 µM, 1 to 10 µM and 0.1 to 0.5 µM, respectively.
Take `COc1ccc(NC(=O)c2ccnc(C(C)(C)C#N)c2)cc1-c1cccc(-c2cc(NC(=O)C3CC3)ncn2)c1` [Example 438]: the IC50 was ≤ 0.1 µM in test [1], ≤ 0.1 µM in the test on A375 cells and 0.1 to 0.5 µM in the test with H2405 cells [2].
`CNC(=O)c1cc(-c2cncc(-c3cc(NC(=O)c4ccnc(C(C)(F)F)c4)ccc3C)c2)ncn1` [Example 439]: the IC50 with H2405 cells [3] lay in the range of 0.1 to 0.5 µM.
The same measure, in the same setting: next, `CNC(=O)c1cc(-c2cncc(-c3cc(NC(=O)c4ccnc(C(C)(F)F)c4)ccc3C)c2)ccn1` [Example 440]: 0.1 to 0.5 µM.
Same read-out and setting: for `CNC(=O)c1cc(-c2cc(-c3cc(NC(=O)c4ccnc(C(C)(F)F)c4)ccc3C)ccn2)ccn1` [Example 441] the value was ≤ 0.1 µM; for `CNC(=O)c1cc(-c2cncc(-c3cc(NC(=O)c4ccnc(C(C)(C)C#N)c4)ccc3C)c2)ccn1` [Example 442], ≤ 0.1 µM; for `CNC(=O)c1cc(-c2cc(-c3cc(NC(=O)c4ccnc(C(C)C)c4)ccc3C)ccn2)ccn1` [Example 443], ≤ 0.1 µM.
On to `CNC(=O)c1cc(-c2cncc(-c3cc(NC(=O)c4ccnc(C(C)C)c4)ccc3C)c2)ccn1` [Example 445], for which the IC50 in the test on H2405 cells [3] was ≤ 0.1 µM.
